pIC50: −log10 of the molar value.
Experiments:
[1] = target: T1, human P2X4 (Homo sapiens, UniProt Q99571); assay: Human P2X4 HEK Cell Electrophysiology Assay A (PatchLiner); type: cell-based; design: expressed in transfected cells; host or cells: HEK293; conditions: ATP 5 μM, -80 mV; read-out: Human P2X4 HEK Cells (PatchLiner Electrophysiology) avg IC50
T1 sequence (Q99571 1-388): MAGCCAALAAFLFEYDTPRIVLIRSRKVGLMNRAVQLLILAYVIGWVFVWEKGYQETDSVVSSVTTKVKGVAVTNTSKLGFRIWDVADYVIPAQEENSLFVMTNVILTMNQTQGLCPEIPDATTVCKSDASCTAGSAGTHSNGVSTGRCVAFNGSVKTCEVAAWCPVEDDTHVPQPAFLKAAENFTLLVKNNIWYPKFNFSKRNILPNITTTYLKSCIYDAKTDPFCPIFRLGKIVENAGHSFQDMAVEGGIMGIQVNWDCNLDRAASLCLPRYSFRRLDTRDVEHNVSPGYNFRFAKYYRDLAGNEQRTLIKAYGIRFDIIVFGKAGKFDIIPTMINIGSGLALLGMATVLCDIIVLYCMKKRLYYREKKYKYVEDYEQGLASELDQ
Protocol: HEK293 cells stably expressing human P2X4 were seeded in T75 cell culturing flasks at a density of 7*106 cells and incubated overnight. P2X4 function was assayed using the automated patch clamp platform PatchLiner (Nanion) in single hole mode. Composition of extracellular buffer was (in mM) NaCl 145, KCl 4, HEPES 10, CaCl2) 1, MgCl2 0.5, D-glucose monohydrate 10, pH=7.4. The intracellular buffer contained (in mM): CsF 135, EGTA 1, HEPES 10, NaCl 10, pH 7.2. On the day of the assay, cells were harvested using Accumax (Sigma) and were resuspended in extracellular buffer. The ligand agonist, adenosine 5′-trisphosphate (ATP, 5 μM) was added in a volume of 5 μL, directly washed off by extracellular buffer (40 μL). The cells were voltage clamped at −80 mV and ligand was applied every 5 min. for 20 min. Over this period the agonist response was stable and compounds were measured in single concentration per well mode. Compounds diluted in extracellular buffer (final assay DMSO concentration 0.3%) were added in a volume of 40 μL and allowed to incubate for 8 min at room temperature. The data was analyzed based on the decrease in peak current amplitude and normalized to the agonist control. Mean values were plotted in Excel XLFit to determine IC50 values, percentage of maximal inhibition and the Hill coefficients.

[2] = target: T2, hP2X4 (Homo sapiens, UniProt Q99571); assay: Human P2X4 HEK Cell Electrophysiology Assay B (QPatch); type: cell-based; conditions: ATP 5 microM, -90 mV; read-out: Human P2X4 HEK Cells (QPatch Electrophysiology) avg IC50
T2 construct: expressed in transfected cells; host or cells: HEK-293 mito-Photina, clone 2a/4
T2 sequence (Q99571 1-388): T1 sequence (Q99571 1-388)
Protocol: Cell culture conditions: HEK-293 mito-Photina pcDNA3(neo-)/pPURO N/pcDNA3_P2RX4, clone 2a/4 (HEK-293 mito-Photina/hP2RX4) cells were cultured in EMEM Minimum Essential Medium Eagle with Earl's salts Balanced Salt Solution (BioWhittaker cat. BE12-125F) supplemented with 5 mL of 200 mM Ultraglutaminel (BioWhittaker cat. BE17-605E/U1), 5 mL of 100× Penicillin/Streptomycin (BioWhittaker cat. DE17-602E; final concentration 1%), 4 mL of 50 mg/mL G418 (Sigma cat. G8168-100 mL; final concentration 400 μg/mL), 10 μL of 10 mg/mL Puromicin (InvivoGen cat. ant-pr-1; final concentration 0.2 μg/mL) and 50 mL of Fetal Bovine Serum (Sigma cat. F7524; final concentration 10%).
Experimentalprotocol: HEK-293 cell lines are seeded 72 or 96 hours before experiment, at a concentration of 5 or 2.5 million cells, respectively onto a T225 flask. Just before the experiments cells are washed twice with D-PBS w/o Ca2+/Mg2+(Euroclone cat. ECB4004L) and detached from the flask with trypsin-EDTA (Sigma, cat. T4174 diluted 1/10). Cells are then re-suspended in the suspension solution: 25 mL EX-CELL ACF CHO medium (Sigma, cat. C5467); 0.625 mL HEPES (BioWhittaker, cat. BE17-737E); 0.25 mL of 100× Penicillin/Streptomycin (BioWhittaker, cat. DE17-602E), 0.1 mL of Soybean Trypsin Inhibitor 10 mg/mL (Sigma, cat. T6522) and placed on the QPatch 16X.
Compound preparation and storage: Compound stock solutions (10 mM; 100% DMSO; stored at −20° C.) were used. Fresh solutions from stock (1 or 3 mM, 100% DMSO) were prepared just before the experiments (0.1% final DMSO concentration).
Patch clamp analysis with QPatch16X (FIG. 1): Standard whole-cell voltage clamp experiments are performed at room temperature using the multihole technology.
For the voltage clamp experiments on hP2X4, data are sampled at 2 KHz. After establishment of the seal and the passage in the whole cell configuration, the cells are held at −90 mV and the hP2X4 current is evoked by the agonist in the absence (vehicle period, i.e. 0.1% DMSO) or in the presence of the compound under investigation at increasing concentrations; see the application protocol in FIG. 1.
Output: the maximum inward current induced by the agonist (ATP 5 microM).
The intracellular solution contained (mM) 135 CsF, 10 NaCl, 1 EGTA, 10 HEPES (pH 7.2 with CsOH) whereas the extracellular solution (mM) 145 NaCl, 4 KCl, 0.5 MgCl2, 1 CaCl2, […], 10 Glucose (pH 7.4 with NaOH).
For data collection, the Sophion software was used and the analysis was performed off-line using Excel and GraphPad Prism.
When possible, i.e. when the % of inhibition with the highest concentration tested was more than 50%, the dose-response curves data were fitted with the following equation:
[X is log of concentration; Y is normalized response (100% down to 0%, decreasing as X increases); Log IC50 same log units as X; HillSlope is unitless slope factor or hill slope]

| SMILES | pIC50 [1] | pIC50 [2] |
| --- | --- | --- |
| NS(=O)(=O)c1cc(NC(=O)Cc2ccccc2Cl)ccc1-n1cc(C(F)(F)F)cn1 [Example 19, 2-(2-Chlorophenyl)-N-{3-sulfamoyl-4-[4-(trifluoromethyl)-1H-pyrazol-1-yl]phenyl}acetamide] | 6.95 | 6.56 |
| NS(=O)(=O)c1cc(NC(=O)Cc2ccccc2Cl)ccc1-n1cc(F)cn1 [Example 26, 2-(2-Chlorophenyl)-N-[4-(4-fluoro-1H-pyrazol-1-yl)-3-sulfamoylphenyl]acetamide] |  | 6.65 |
| N#Cc1cnn(-c2ccc(NC(=O)Cc3ccccc3Cl)cc2S(N)(=O)=O)c1 [Example 39, 2-(2-Chlorophenyl)-N-[4-(4-cyano-1H-pyrazol-1-yl)-3-sulfamoylphenyl]acetamide] | 6.86 |  |
| NS(=O)(=O)c1cc(NC(=O)Cc2ccccc2Cl)ccc1-c1cnn(C(F)F)c1 [Example 326, 2-(2-Chlorophenyl)-N-{4-[1-(difluoromethyl)-1H-pyrazol-4-yl]-3-sulfamoylphenyl}acetamide] | 7.24 | 7.29 |
| NS(=O)(=O)c1cc(NC(=O)Cc2ccccc2Cl)cnc1-n1cc(C(F)(F)F)cn1 [Example 380, 2-(2-Chlorophenyl)-N-{5-sulfamoyl-6-[4-(trifluoromethyl)-1H-pyrazol-1-yl]pyridin-3-yl}acetamide] | 6.49 | 6.80 |

— US20210179577A1, “AROMATIC SULFONAMIDE DERIVATIVES FOR THE TREATMENT OF ISCHEMIC STROKE” (Bayer Aktiengesellschaft, priority 2017, published 2021)
